In patent publication US20240066119A1, “METHODS AND PLATFORMS FOR ELICITING AN IMMUNE RESPONSE IN THE TREATMENT OF CANCER AND COMPOSITIONS AND VACCINES RELATING THERETO” (University of Maryland, College Park, priority 2021, published 2024):

Test system: lymphocyte egress from lymphoid tissues
Assay: Inhibition of lymphocyte trafficking with FTY720
Type: in vivo, C57BL6 mice
Details: FTY720 1 mg/kg daily i.p., day 7 after vaccination
Experimental: Investigation of Adjuvant-Involvement on Split LN Treatments and Effect of Inhibition of Lymphocyte Trafficking on Antigen Specificity. To determine the influence of adjuvant (PolyIC) delivery in the Split LN treatment group on antigen-specificity as quantified by SIINFEKL tetramer, mice were treated as described above for Split LN treatment with soluble OVA and either PolyIC MPs or with PBS. Antigen-specific CD8^+ T cells in the blood and LNs were quantified using SIINFEKL tetramer as described above. Antigen-specific T cells were reported as a percentage of Live, CD8^+ cells. In studies to determine the effect of lymphocyte trafficking on local and systemic antigen-specificity, FTY720 (Sigma) was administered daily at 1 mg/kg via intraperitoneal injection one day prior to vaccination until the end of the experiment (7 days after vaccination). Following vaccination, antigen-specific CD8^+ T cells in the blood and LNs were quantified using SIINFEKL tetramer as described above and reported as a percentage of Live, CD8^+ cells and an overall number of cells from an identical acquisition volume (80 μL).

SMILES: CCCCCCCCc1ccc(CCC(N)(CO)CO)cc1 [FTY720]
- number of antigen-specific T cells in blood: greatly diminished
- percentage of antigen-specific T cells in blood: did not significantly change
